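Each compound was tested at five concentrations against cells in 96-well plates for 48 hours. GI50: concentration for 50% inhibition of growth.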 Active and inactive are the calls of the source. Rule as the data show it: active = GI50 up to about 1.1 µM and inactive = higher.
Columns and labels:
Experiment in all cases: DTP human tumour cell line panel, 48 h
Malme-3M = system: Malme-3M
SK-OV-3 = system: SK-OV-3
SF-539 = system: SF-539
MDA-N = system: MDA-N
Hs-578T = system: Hs-578T
TK-10 = system: TK-10
MOLT-4 = system: MOLT-4
U-251 = system: U-251
ACHN = system: ACHN
HT-29 = system: HT-29
SR = system: SR
HCT-15 = system: HCT-15
NCI-H226 = system: NCI-H226
RPMI-8226 = system: RPMI-8226
COLO 205 = system: COLO 205
NCI-H23 = system: NCI-H23
UACC-62 = system: UACC-62
HOP-92 = system: HOP-92
HCC 2998 = system: HCC 2998

Row | SMILES | GI50 (Malme-3M) | GI50 (SK-OV-3) | GI50 (SF-539) | GI50 (MDA-N) | GI50 (Hs-578T) | GI50 (TK-10) | GI50 (MOLT-4) | GI50 (U-251) | GI50 (ACHN) | GI50 (HT-29) | GI50 (SR) | GI50 (HCT-15) [µM] | GI50 (NCI-H226) | GI50 (RPMI-8226) | GI50 (COLO 205) | GI50 (NCI-H23) | GI50 (UACC-62) | GI50 (HOP-92) | GI50 (HCC 2998)
1 | O=C(CCn1ccnc1[N+](=O)[O-])NCCCn1ccnc1[N+](=O)[O-] | > 100 µM (inactive) | > 100 µM (inactive) | > 100 µM (inactive) | > 100 µM (inactive) | > 100 µM (inactive) | > 100 µM (inactive) | > 100 µM (inactive) | > 100 µM (inactive) | > 100 µM (inactive) | > 100 µM (inactive) | > 100 µM (inactive) | > 100 | > 100 µM (inactive) | > 100 µM (inactive) | > 100 µM (inactive) | > 100 µM (inactive) | > 100 µM (inactive) |  | 
2 | CCOC(=O)C1=CC(C)(C(=O)OCC)Nc2c(nc(N)[nH]c2=O)N1 (stereo unspecified) | > 10 µM (inactive) | > 10 µM (inactive) | > 10 µM (inactive) | > 10 µM (inactive) | > 10 µM (inactive) | > 10 µM (inactive) | > 10 µM (inactive) | > 10 µM (inactive) | > 10 µM (inactive) | > 10 µM (inactive) |  | > 10 | > 10 µM (inactive) | > 10 µM (inactive) | > 10 µM (inactive) | > 10 µM (inactive) |  | > 10 µM (inactive) | > 10 µM (inactive)
3 | CC1=CC[C@@H]2[C@@H](CC[C@@]2(C)O)C(C)(C)[C@H]1CC[C@@H]1[C@@]2(C)CCC(=O)C(C)(C)O[C@@H]2CC[C@]1(C)O |  | 74.3 µM (inactive) | 17.3 µM (inactive) | 25 µM (inactive) | 22.8 µM (inactive) | 83.4 µM (inactive) | 20.7 µM (inactive) | 31.9 µM (inactive) | 19.5 µM (inactive) | > 10 µM (inactive) | 19 µM (inactive) | 14.9 | 22.5 µM (inactive) | 19.7 µM (inactive) | 25.6 µM (inactive) | 34.3 µM (inactive) | 16.1 µM (inactive) |  | 18.7 µM (inactive)
4 | CCOC(=O)c1ccc(Nc2nc3ccccc3nc2-c2cccs2)cc1 | > 100 µM (inactive) |  | > 100 µM (inactive) | 19 µM (inactive) | > 100 µM (inactive) | 23.3 µM (inactive) | 23.6 µM (inactive) | 97.9 µM (inactive) | 47.8 µM (inactive) |  | 26.9 µM (inactive) | 25.3 | > 100 µM (inactive) | 62.8 µM (inactive) | 96.6 µM (inactive) | > 100 µM (inactive) | 4.24 µM (inactive) |  | 23.1 µM (inactive)
5 | COc1ccc2c(c1)nc1n2C(c2c(Cl)cccc2Cl)SC1 (stereo unspecified) | 3.01 µM (inactive) | > 51.9 µM (inactive) | 9.1 µM (inactive) | 2.26 µM (inactive) | 5.45 µM (inactive) | > 58.6 µM (inactive) | > 21.6 µM (inactive) | 21.4 µM (inactive) | 40.8 µM (inactive) | 15.2 µM (inactive) |  | 5.81 | > 21.8 µM (inactive) | > 23.5 µM (inactive) | 4.63 µM (inactive) | 38.4 µM (inactive) | 18.4 µM (inactive) | > 71.4 µM (inactive) | 11.2 µM (inactive)
6 | Cc1sc2c(c1C)/C(=N\O)c1cccn1-2 | 45.1 µM (inactive) | 39.7 µM (inactive) |  | 40.6 µM (inactive) | 16.9 µM (inactive) | 43.6 µM (inactive) | 17.3 µM (inactive) | 26.7 µM (inactive) | 37.2 µM (inactive) | 30.2 µM (inactive) | 22.6 µM (inactive) | 81.8 | 29.7 µM (inactive) | 37.8 µM (inactive) | > 100 µM (inactive) |  | 95.7 µM (inactive) |  | 37 µM (inactive)

Reference: ChEMBL document CHEMBL1201862, “PubChem BioAssay data set” (2004)
